Data on eight compounds can be found in ChEMBL document CHEMBL3244168, “Synthesis and antitumor activity of preactivated isophosphamide analogues bearing modified alkylating functionalities” (J Med Chem, 1978).

Series [1] concerns L1210. In words: Antileukemic activity against mouse L1210 cells allografted in BDF1 mouse assessed as mean survival time at 530 mg/kg, ip administered 24 hrs (Rvb 4.6 +/- 0.16 days). In kind it is functional. The note with it: route intraperitoneal.
Series [2] deals with L1210. In words: Antileukemic activity against mouse L1210 cells allografted in BDF1 mouse assessed as increase in life span at 530 mg/kg, ip administered 24 hrs relative to control. Format: functional. The note with it: route intraperitoneal.
Series [3] deals with L1210. The series can be described thus: Antileukemic activity against mouse L1210 cells allografted in po dosed BDF1 mouse assessed as survival over 60 days administered 24 hrs. Format: functional. The following applies: read-out: MED.
The subject of series [4] is L1210. The series can be described thus: Antileukemic activity against mouse L1210 cells allografted in BDF1 mouse assessed as increase in life span at 70 mg/kg, ip administered 24 hrs relative to control. The note with it: route intraperitoneal. Format: functional.
Series [5] concerns L1210. The series can be described thus: Ratio of Cmax to Cmin for antileukemic activity against mouse L1210 cells allografted in iv dosed BDF1 mouse assessed as survival over 60 days. Format: functional.
Series [6] deals with L1210. In words: Antileukemic activity against mouse L1210 cells allografted in po dosed BDF1 mouse assessed as maximum tolerated dose for survival over 60 days administered 24 hrs. Format: functional.
For series [7], the system named is L1210. The series can be described thus: Antileukemic activity against mouse L1210 cells allografted in iv dosed BDF1 mouse assessed as survival over 60 days administered 24 hrs. Format: functional. The note with it: read-out: MED.
The test system of series [8] is L1210. The series can be described thus: Antileukemic activity against mouse L1210 cells allografted in BDF1 mouse assessed as mean survival time at 130 mg/kg, ip administered 24 hrs (Rvb 4.6 +/- 0.16 days). Format: functional. The note with it: route intraperitoneal.
Series [9] deals with L1210. The series can be described thus: Antileukemic activity against mouse L1210 cells allografted in BDF1 mouse assessed as mean survival time at 330 mg/kg, ip administered 24 hrs (Rvb 4.6 +/- 0.16 days). Format: functional. The note with it: route intraperitoneal.
The subject of series [10] is L1210. The series can be described thus: Antileukemic activity against mouse L1210 cells allografted in BDF1 mouse assessed as increase in life span at 130 mg/kg, ip administered 24 hrs relative to control. Format: functional. The note with it: route intraperitoneal.
For series [11], the system named is L1210. The series can be described thus: Antileukemic activity against mouse L1210 cells allografted in BDF1 mouse assessed as increase in life span at 330 mg/kg, ip administered 24 hrs relative to control. Format: functional. The note with it: route intraperitoneal.
Series [12] concerns L1210. The series can be described thus: Antileukemic activity against mouse L1210 cells allografted in BDF1 mouse assessed as mean survival time at 70 mg/kg, ip administered 24 hrs (Rvb 4.6 +/- 0.16 days). The note with it: route intraperitoneal. Format: functional.
Series [13] concerns L1210. In words: Antileukemic activity against mouse L1210 cells allografted in iv dosed BDF1 mouse assessed as maximum tolerated dose for survival over 60 days administered 24 hrs. Format: functional.
The subject of series [14] is L1210. In words: Ratio of Cmax to Cmin for antileukemic activity against mouse L1210 cells allografted in po dosed BDF1 mouse assessed as survival over 60 days. In kind it is functional.
Series [15] deals with L1210. The series can be described thus: Ratio of ILSmax to ILS30 for antileukemic activity against mouse L1210 cells allografted in ip dosed BDF1 mouse. In kind it is functional.
The subject of series [16] is L1210. In words: Cytotoxicity against mouse L1210 cells assessed as growth inhibition after 72 hrs. Format: functional. The note with it: L1210, 72 h, read-out: ED50 (the source's name).
The subject of series [17] is L1210. The series can be described thus: Antileukemic activity against mouse L1210 cells allografted in ip dosed BDF1 mouse administered 24 hrs. Format: functional.
In series [18] the test system is L1210. The series can be described thus: Antileukemic activity against mouse L1210 cells allografted in ip dosed BDF1 mouse assessed as maximum tolerated dose for survival over 30 days administered 24 hrs. In kind it is functional.
Series [19] concerns L1210. The series can be described thus: Antileukemic activity against mouse L1210 cells allografted in BDF1 mouse assessed as mean survival time at 100 mg/kg, ip administered 24 hrs (Rvb 4.6 +/- 0.16 days). In kind it is functional. The note with it: route intraperitoneal.
Series [20] relates to Mus musculus. The series can be described thus: Acute toxicity in iv dosed BDF1 mouse. Format: organism-based. The following applies: in vivo.
In series [21] the test system is L1210. In words: Antileukemic activity against mouse L1210 cells allografted in BDF1 mouse assessed as increase in life span at 200 mg/kg, ip administered 24 hrs relative to control. In kind it is functional. The note with it: route intraperitoneal.
Series [22] concerns L1210. In words: Antileukemic activity against mouse L1210 cells allografted in BDF1 mouse assessed as mean survival time at 20 mg/kg, ip administered 24 hrs (Rvb 4.6 +/- 0.16 days). In kind it is functional. The note with it: route intraperitoneal.
Series [23] concerns Mus musculus. The series can be described thus: Acute toxicity in ip dosed BDF1 mouse. The note with it: in vivo. In kind it is organism-based.
Series [24] has as its system L1210. The series can be described thus: Ratio of Cmax to Cmin for antileukemic activity against mouse L1210 cells allografted in ip dosed BDF1 mouse assessed as survival over 60 days. In kind it is functional.
The subject of series [25] is Rattus norvegicus. In words: Acute toxicity in po dosed Wistar rat. In kind it is organism-based. The following applies: in vivo.
Series [26] relates to L1210. The series can be described thus: Antileukemic activity against mouse L1210 cells allografted in BDF1 mouse assessed as mean survival time at 200 mg/kg, ip administered 24 hrs (Rvb 4.6 +/- 0.16 days). In kind it is functional. The following applies: route intraperitoneal.
Series [27] concerns Mus musculus. The series can be described thus: Acute toxicity in po dosed BDF1 mouse. The following applies: in vivo. Format: organism-based.
For series [28], the system named is Rattus norvegicus. The series can be described thus: Acute toxicity in iv dosed Wistar rat. Format: organism-based. The following applies: in vivo.
Series [29] relates to L1210. The series can be described thus: Antileukemic activity against mouse L1210 cells allografted in ip dosed BDF1 mouse assessed as maximum tolerated dose for survival over 60 days administered 24 hrs. Format: functional.
The test system of series [30] is L1210. The series can be described thus: Antileukemic activity against mouse L1210 cells allografted in BDF1 mouse assessed as mean survival time at 50 mg/kg, ip administered 24 hrs (Rvb 4.6 +/- 0.16 days). Format: functional. The note with it: route intraperitoneal.
The subject of series [31] is L1210. The series can be described thus: Antileukemic activity against mouse L1210 cells allografted in ip dosed BDF1 mouse assessed as survival over 60 days administered 24 hrs. Format: functional. The note with it: read-out: MED.
Series [32] relates to L1210. The series can be described thus: Antileukemic activity against mouse L1210 cells allografted in BDF1 mouse assessed as increase in life span at 100 mg/kg, ip administered 24 hrs relative to control. Format: functional. The note with it: route intraperitoneal.
In series [33] the test system is L1210. In words: Antileukemic activity against mouse L1210 cells allografted in BDF1 mouse assessed as increase in life span at 20 mg/kg, ip administered 24 hrs relative to control. In kind it is functional. The following applies: route intraperitoneal.
Series [34] concerns Rattus norvegicus. The series can be described thus: Acute toxicity in ip dosed Wistar rat. Format: organism-based. The following applies: in vivo.
In series [35] the test system is L1210. The series can be described thus: Antileukemic activity against mouse L1210 cells allografted in BDF1 mouse assessed as increase in life span at 50 mg/kg, ip administered 24 hrs relative to control. Format: functional. The note with it: route intraperitoneal.

The structures appear in SMILES notation. Converted amounts (≈) assume the structure as drawn.

By ILS is commonly meant how much longer treated animals lived than controls. Usually MTD stands for the largest dose that counted as tolerated. With `O=P1(NCCCl)OCCCN1CCCl` (stereo not given) [IFOSFAMIDE], the MST in series [1] was more than 16.5 days; in series [8] it was 11.9 days; in series [9], more than 24.3 days; in [12], 8.8 days. Further, in [2], the ILS at 530 mg/kg is more than 251%. The minimal effective dose in series [3] was 250 mg/kg; in [7] it was 280 mg/kg. Also, the ILS at 70 mg/kg in [4] turned out to be 90%. The values for the Ratio in [5] and in series [14] were 1.1 and 1, respectively. Also, the MTD in series [6] stood at 250 mg/kg; in series [13], 320 mg/kg. Further, in series [10], the increase in life span (ILS) at 130 mg/kg was found to be 158%. Besides, the ILS at 330 mg/kg in series [11] is more than 427%.
As to `CCN(CCCl)P1(=O)OCCC(OO)N1CCOS(C)(=O)=O` (stereo not given), the Ratio in [15] is 12. Further, the EC50 in series [16] came to 0.5 µg/mL (≈ 1.31 µM). Moreover, the ILS30 in series [17] was determined as 6 mg/kg. For the same compound, the ILSmax in [18] was found to be 70 mg/kg.
As to `CN(CCOS(C)(=O)=O)P1(=O)OCCC(OO)N1CCCl` (stereo not given), the Ratio in series [15] is on record as 20. The EC50 in series [16] was 0.5 µg/mL (≈ 1.36 µM). This compound also had an ILS30 in series [17] of 3 mg/kg. Besides, the ILSmax in [18] came to 60 mg/kg.
Take `O=P1(NCCCl)OCCC(OO)N1CCCl` (stereo not given): the MST is more than 23.8 days in series [19], 8.9 days in series [22], more than 26.5 days in series [26] and 12.5 days in [30]. Besides, the LD10 is 220 mg/kg in [20]; 220 mg/kg in series [23]; 800 mg/kg in series [25]; 1000 mg/kg in [27]; 250 mg/kg in [28]; 250 mg/kg in series [34]. Also, in [21], the ILS at 200 mg/kg is more than 476%. In addition, the Ratio in series [15] is reported as 7; in series [24] it was 2.3; in [5], 1.8; in series [14], 1. For the same compound, the values for the minimal effective dose in [3], in [7] and in series [31] were 400 mg/kg, 90 mg/kg and 30 mg/kg, respectively. In addition, the values for the maximum tolerated dose (MTD) in series [6], in [29] and in series [13] were 400 mg/kg, 70 mg/kg and 160 mg/kg, respectively. For the same compound, in series [16], the EC50 worked out at 1.8 µg/mL (≈ 6.14 µM). The ILS30 in series [17] was 15 mg/kg. In [32], the ILS at 100 mg/kg is more than 416%. Besides, the ILSmax in series [18] is 100 mg/kg. In [33], the increase in life span (ILS) at 20 mg/kg was 93%. The ILS at 50 mg/kg in [35] amounted to 172%.
For the compound `CN(CCBr)P1(=O)OCCC(OO)N1CCOS(C)(=O)=O` (stereo not given), the Ratio in series [15] amounted to 20. In addition, the EC50 in series [16] was 1 µg/mL (≈ 2.43 µM). The same compound came in with an ILS30 in series [17] of 3 mg/kg. Moreover, the ILSmax in series [18] is 60 mg/kg.
Take `CS(=O)(=O)OCCNP1(=O)OCCC(OO)N1CCOS(C)(=O)=O` (stereo not given): in [15], the Ratio was found to be 2. Moreover, in [16], the EC50 is 3.9 µg/mL (≈ 9.46 µM). The compound further displayed an ILS30 in [17] of 25 mg/kg. Also, in [18], the ILSmax came to 50 mg/kg.
For `CN(CCCl)P1(=O)OCCC(OO)N1CCBr` (stereo not given) the same measures were 5, 0.5 µg/mL (≈ 1.42 µM), 7 mg/kg and 35 mg/kg.
Taken in the same sequence, the figures for `CS(=O)(=O)OCCN1C(OO)CCOP1(=O)NCCCl` (stereo not given) were 38, 0.8 µg/mL (≈ 2.27 µM), 2 mg/kg and 75 mg/kg.
